Source: US8735414B2 (priority 2009, dated 2014)

How the values were obtained:
[1] = test system: bicistronic HCV replicon (replicon RNA, GenBank Accession No. AJ242654); assay: HCV Replicon Assay; format: cell-based; conditions: Hepatitis C virus, 72 h, read-out: Replicon IC50

| Structure (SMILES) | IC50 [1] [nM] | melting point |
| --- | --- | --- |
| CC(C)NS(=O)(=O)c1cnc(-c2c(C#N)c3ccc(C(C)C)cc3n2C2CCC2)nc1 [compound 185, 2-[3-cyano-1-cyclobutyl-6-(propan-2-yl)-1H-indol-2-yl]-N-(propan-2-yl)pyrimidine-5-sulfonamide] | < 500 | 220 to 222 °C |
| CCc1cc2c(cc1F)c(C#N)c(-c1ccc(S(=O)(=O)N[C@@H](C)C(F)(F)F)cn1)n2-c1ccnc(C)n1 [compound 943, 6-[3-cyano-6-ethyl-5-fluoro-1-(2-methylpyrimidin-4-yl)-1H-indol-2-yl]-N-[(2S)-1,1,1-trifluoropropan-2-yl]pyridine-3-sulfonamide] | 500 to 2000 | 138 to 146 °C |
| CCc1cc(F)c2c(C(N)=O)c(-c3ccc(NS(=O)(=O)C(C)(C)C)cn3)n(C3CCC3)c2c1 [compound 1110, 2-{5-[(tert-butylsulfonyl)amino]pyridin-2-yl}-1-cyclobutyl-6-ethyl-4-fluoro-1H-indole-3-carboxamide] | < 500 | 259 to 263 °C |
| CC(C)(C)NS(=O)(=O)c1ccc(-c2c(C#N)c3cc(Cl)ccc3n2C2CCC2)nc1 [compound 15, N-tert-butyl-6-(5-chloro-3-cyano-1-cyclobutyl-1H-indol-2-yl)pyridine-3-sulfonamide] | 500 to 2000 | 195 to 197 °C |
| C[C@H](NS(=O)(=O)c1ccc(-c2c(C#N)c3ccc(C#N)cc3n2CC2CC2)nc1)C1CC1 [compound 350, N-[(1S)-1-cyclopropylethyl]-6-[3,6-dicyano-1-(cyclopropylmethyl)-1H-indol-2-yl]pyridine-3-sulfonamide] | 500 to 2000 | 203 to 208 °C |
| N#Cc1c(-c2ccc(S(=O)(=O)NC(CF)CF)cn2)n(-c2ccccn2)c2ccc(F)cc12 [compound 96, 6-[3-cyano-5-fluoro-1-(pyridin-2-yl)-1H-indol-2-yl]-N-(1,3-difluoropropan-2-yl)pyridine-3-sulfonamide] | < 500 | 170 to 172 °C |
| C[C@H](NS(=O)(=O)c1ccc(-c2c(C#N)c3ccc(C4CC4)cc3n2-c2ccccn2)nc1)C(F)(F)F [compound 502, 6-[3-cyano-6-cyclopropyl-1-(pyridin-2-yl)-1H-indol-2-yl]-N-[(2S)-1,1,1-trifluoropropan-2-yl]pyridine-3-sulfonamide] | < 500 | 185 to 189 °C |
| CC(C)NS(=O)(=O)c1cnc(-c2c(C#N)c3ccc(F)cc3n2C2CCCC2)nc1 [compound 141, 2-(3-cyano-1-cyclopentyl-6-fluoro-1H-indol-2-yl)-N-(propan-2-yl)pyrimidine-5-sulfonamide] | 500 to 2000 | 216 to 217 °C |
| Cc1cc2c(cc1F)c(C#N)c(-c1ccc(S(=O)(=O)N[C@@H](C)C(F)(F)F)cn1)n2-c1cccc(Cl)n1 [compound 962, 6-[1-(6-chloropyridin-2-yl)-3-cyano-5-fluoro-6-methyl-1H-indol-2-yl]-N-[(2S)-1,1,1-trifluoropropan-2-yl]pyridine-3-sulfonamide] | < 500 | 253 to 257 °C |
| Cc1cc2c(C#N)c(-c3ccc(S(=O)(=O)N[C@@H](C)C(F)(F)F)cn3)n(-c3ccccn3)c2cc1F [compound 917, 6-[3-cyano-6-fluoro-5-methyl-1-(pyridin-2-yl)-1H-indol-2-yl]-N-[(2S)-1,1,1-trifluoropropan-2-yl]pyridine-3-sulfonamide] | < 500 | 175 to 180 °C |
| Cc1cc2c(cc1F)c(C#N)c(-c1ccc(S(=O)(=O)N[C@@H](C)C(F)(F)F)cn1)n2-c1ccc(C#N)cn1 [compound 743, 6-[3-cyano-1-(5-cyanopyridin-2-yl)-5-fluoro-6-methyl-1H-indol-2-yl]-N-[(2S)-1,1,1-trifluoropropan-2-yl]pyridine-3-sulfonamide] | < 500 | 276 to 277 °C |
| N#Cc1c(-c2ncc(S(=O)(=O)NC(CF)CF)cn2)n(C2CCCCC2)c2cc(C3CC3)ccc12 [compound 193, 2-(3-cyano-1-cyclohexyl-6-cyclopropyl-1H-indol-2-yl)-N-(1,3-difluoropropan-2-yl)pyrimidine-5-sulfonamide] | < 500 | > 200 °C (dec.) |
| CC(C)n1c(-c2ccc(S(=O)(=O)N[C@@H](C)C(F)(F)F)cn2)c(C(N)=O)c2c(F)cc(OC(F)F)cc21 [compound 839, 6-(difluoromethoxy)-4-fluoro-1-(propan-2-yl)-2-(5-{[(2S)-1,1,1-trifluoropropan-2-yl]sulfamoyl}pyridin-2-yl)-1H-indole-3-carboxamide] | < 500 | 197 to 198 °C |
| Cc1ccc2c(C#N)c(-c3ccc(S(=O)(=O)NC(CF)CF)cn3)n(C3CCCC3)c2c1 [compound 44, 6-(3-cyano-1-cyclopentyl-6-methyl-1H-indol-2-yl)-N-(1,3-difluoropropan-2-yl)pyridine-3-sulfonamide] | < 500 | 144 to 145 °C |
| Cc1ccc2c(c1)c(C#N)c(-c1ccc(S(=O)(=O)N[C@@H](C)C(F)(F)F)cn1)n2-c1ncccn1 [compound 843, 6-[3-cyano-5-methyl-1-(pyrimidin-2-yl)-1H-indol-2-yl]-N-[(2S)-1,1,1-trifluoropropan-2-yl]pyridine-3-sulfonamide] | < 500 | 174 to 179 °C |
| Cc1cc2c(cc1F)c(C#N)c(-c1ncc(S(=O)(=O)NC(CF)CF)cn1)n2C1CCC1 [compound 146, 2-(3-cyano-1-cyclobutyl-5-fluoro-6-methyl-1H-indol-2-yl)-N-(1,3-difluoropropan-2-yl)pyrimidine-5-sulfonamide] | < 500 | 243 to 249 °C |
| C[C@H](NS(=O)(=O)c1cnc(-c2c(C#N)c3cc(C#N)ccc3n2C2CCCC2)nc1)C1CC1 [compound 367, N-[(1S)-1-cyclopropylethyl]-2-(3,5-dicyano-1-cyclopentyl-1H-indol-2-yl)pyrimidine-5-sulfonamide] | 500 to 2000 | 218 to 223 °C |
| Cc1cc2c(cc1F)c(C#N)c(-c1ccc(S(=O)(=O)N[C@@H](C)C(F)(F)F)cn1)n2-c1ccsc1 [compound 992, 6-[3-cyano-5-fluoro-6-methyl-1-(thiophen-3-yl)-1H-indol-2-yl]-N-[(2S)-1,1,1-trifluoropropan-2-yl]pyridine-3-sulfonamide] | < 500 | 196 to 203 °C |
| COc1cc2c(C#N)c(-c3ccc(S(=O)(=O)N[C@@H](C)C(F)(F)F)cn3)n(C3CCC3)c2cc1C [compound 757, 6-(3-cyano-1-cyclobutyl-5-methoxy-6-methyl-1H-indol-2-yl)-N-[(2S)-1,1,1-trifluoropropan-2-yl]pyridine-3-sulfonamide] | 500 to 2000 | 222 to 223 °C |
| CCc1cc2c(cc1F)c(C(N)=O)c(-c1ccc(S(=O)(=O)N[C@@H](C)C(F)(F)F)cn1)n2-c1cccc(F)n1 [compound 995, 6-ethyl-5-fluoro-1-(6-fluoropyridin-2-yl)-2-(5-{[(2S)-1,1,1-trifluoropropan-2-yl]sulfamoyl}pyridin-2-yl)-1H-indole-3-carboxamide] | < 500 | 230 to 233 °C |
| CCc1cc2c(cc1F)c(C(N)=O)c(-c1ccc(S(=O)(=O)N[C@@H](C)C(F)(F)F)cn1)n2-c1cccnn1 [compound 1046, 6-ethyl-5-fluoro-1-(pyridazin-3-yl)-2-(5-{[(2S)-1,1,1-trifluoropropan-2-yl]sulfamoyl}pyridin-2-yl)-1H-indole-3-carboxamide] | 2000 to 5000 | 206 to 212 °C |
| NC(=O)c1c(-c2ccc(S(=O)(=O)NC(CF)CF)cn2)n(C2CCC2)c2cc(OC(F)F)ccc12 [compound 581, 1-cyclobutyl-6-(difluoromethoxy)-2-{5-[(1,3-difluoropropan-2-yl)sulfamoyl]pyridin-2-yl}-1H-indole-3-carboxamide] | < 500 | 211 to 213 °C |
| NC(=O)c1c(-c2ccc(S(=O)(=O)Nc3ccccc3)cn2)n(C2CCC2)c2cc(OC(F)F)c(F)cc12 [compound 798, 1-cyclobutyl-6-(difluoromethoxy)-5-fluoro-2-[5-(phenylsulfamoyl)pyridin-2-yl]-1H-indole-3-carboxamide] | 500 to 2000 | 204 to 206 °C |
| N#Cc1c(-c2ccc(NS(=O)(=O)C3CC3)cn2)n(C2CCCCC2)c2ccc(Cl)cc12 [compound 298, N-[6-(5-chloro-3-cyano-1-cyclohexyl-1H-indol-2-yl)pyridin-3-yl]cyclopropanesulfonamide] | 500 to 2000 | 230 to 235 °C |
| CC(C)NS(=O)(=O)c1cnc(-c2c(C#N)c3ccc(OC(F)F)cc3n2C(C)C)nc1 [compound 171, 2-[3-cyano-6-(difluoromethoxy)-1-(propan-2-yl)-1H-indol-2-yl]-N-(propan-2-yl)pyrimidine-5-sulfonamide] | < 500 | 193 to 196 °C |
| CCc1cc2c(cc1F)c(C#N)c(-c1ccc(S(=O)(=O)N[C@@H](C)C(F)(F)F)c(C)n1)n2-c1ncccn1 [compound 881, 6-[3-cyano-6-ethyl-5-fluoro-1-(pyrimidin-2-yl)-1H-indol-2-yl]-2-methyl-N-[(2S)-1,1,1-trifluoropropan-2-yl]pyridine-3-sulfonamide] | < 500 | 258 to 262 °C |
| CC(C)(NS(=O)(=O)c1ccc(-c2c(C#N)c3cc(F)c(OC(F)F)cc3n2C2CCC2)nc1)C(F)(F)F [compound 676, 6-[3-cyano-1-cyclobutyl-6-(difluoromethoxy)-5-fluoro-1H-indol-2-yl]-N-(1,1,1-trifluoro-2-methylpropan-2-yl)pyridine-3-sulfonamide] | < 500 | 162 to 165 °C |
| CCc1cc2c(cc1F)c(C(N)=O)c(-c1ccc(S(=O)(=O)N[C@@H](C)C(F)(F)F)cn1)n2-c1cc(C)ccn1 [compound 980, 6-ethyl-5-fluoro-1-(4-methylpyridin-2-yl)-2-(5-{[(2S)-1,1,1-trifluoropropan-2-yl]sulfamoyl}pyridin-2-yl)-1H-indole-3-carboxamide] | 500 to 2000 | 137 to 145 °C |
